Results: ChEMBL document CHEMBL1649394, “Cytotoxic and protective DNA damage of three new diterpenoids from the brown alga Dictoyota dichotoma” (Eur J Med Chem, 2011)
Converted amounts (≈) assume the structure as drawn. The source made the active and inactive calls. The rule behind the calls is not given here.

Legend:
Calf thymus DNA = assay: Protective activity against bleomycin-iron complex-induced calf thymus DNA damage assessed as chromogen formation at 0.1 mg/ml after 1 hr; assay type: nucleic-acid assay; conditions: Bos taurus
[1] = Cytotoxicity against mouse EAC assessed as dead cells at 1 mg/ml after 2 hrs using trypan blue staining by hemocytometer analysis; assay type: functional, Ehrlich
[2] = Cytotoxicity against human WI38 cells assessed as loss of cell monolayers after 96 hrs; assay type: cell-based; conditions: WI-38, 96 h
HepG2 = assay: Cytotoxicity against human HepG2 cells assessed as loss of cell monolayers after 96 hrs; assay type: functional, cell-based; conditions: HepG2, 96 h
Vero = assay: Cytotoxicity against african green monkey Vero cells assessed as loss of cell monolayers after 96 hrs; assay type: cell-based; conditions: Chlorocebus sabaeus
[3] = Toxicity in rat erythrocytes assessed as hemolysis at 2 mM; assay type: cell-based, Erythrocyte; conditions: read-out: Activity
MCF7 = assay: Cytotoxicity against human MCF7 cells assessed as loss of cell monolayers after 96 hrs; assay type: functional, cell-based; conditions: MCF7, 96 h
Brain = assay: Antioxidant activity in rat brain/kidney homogenates assessed as inhibition of lipid peroxidation at 2 mM by […] method; assay type: functional, tissue-based
[4] = Cytotoxicity against mouse EAC assessed as dead cells at 25 ug/ml after 2 hrs using trypan blue staining by hemocytometer analysis; assay type: functional, Ehrlich
[5] = Cytotoxicity against human WI38 cells assessed as cell viability at 50 ug/ml after 96 hrs relative to control; assay type: cell-based, WI-38; conditions: read-out: Activity
[6] = Cytotoxicity against human WI38 cells assessed as cell viability at 100 ug/ml after 96 hrs relative to control; assay type: cell-based, WI-38; conditions: read-out: Activity
[7] = Cytotoxicity against human WI38 cells assessed as cell viability at 10 ug/ml after 96 hrs relative to control; assay type: cell-based, WI-38; conditions: read-out: Activity

Row | SMILES | Activity (Calf thymus DNA) | Activity [1] [%] | IC50 [2] [µg/mL] | IC50 (HepG2) [µg/mL] | IC50 (Vero) [µg/mL] | hemolysis at 2000 µM [3] [%] | IC50 (MCF7) [µg/mL] | inhibition (Brain) [%] | Activity [4] [%] | viability at 96 h, 50 ug/ml [5] [%] | viability at 96 h, 100 ug/ml [6] [%] | viability at 96 h, 10 ug/ml [7] [%]
1 | C/C1=C\[C@@H](O)C/C(C)=C/C[C@]2(C)CCC(C(C)C)=C2CC1 [DOLABELLATRIENOL] | inactive | 15.1 | 101 (≈ 349 µM) | 102 (≈ 355 µM) | 121 (≈ 418 µM) | 5.75 | 150 (≈ 522 µM) | 24.4 | – | – | – | –
2 | CC(C)=CCCC(C)C1CC/C(C)=C/CCC2COC(O)C21 (configuration not stated) [ISODICTYOHEMIACETAL] | Active | 59.1 | 84.6 (≈ 276 µM) | 70.2 (≈ 229 µM) | 76.4 (≈ 249 µM) | 0.75 | 75.5 (≈ 246 µM) | 57.4 | – | – | – | –
3 | C=C1CC[C@@H]([C@H](C)CCC=C(C)C)[C@@H](O)[C@@H]2C(C)=CC[C@@H]12 [PACHYDICTYOL A] | Active | 42.9 | 24.6 (≈ 85.3 µM) | 40.2 (≈ 139 µM) | 27.4 (≈ 95 µM) | 2.45 | 37.5 (≈ 130 µM) | 50.2 | – | – | – | –
4 | C=C1C[C@@H](O)[C@@H]([C@H](C)CCC=C(C)C)[C@@H](O)[C@@H]2C(C)=CC[C@@H]12 | Active | 60.9 | 62.6 (≈ 206 µM) | 81.2 (≈ 267 µM) | 72.3 (≈ 237 µM) | 1.1 | 68.2 (≈ 224 µM) | 61.6 | – | – | – | –
5 | CC(C)=CCC[C@@H](C)[C@H]1[C@@H](O)[C@@H]2C(C)=CC[C@H]2[C@@](C)(O)C[C@H]1O [DICTYOL C] | inactive | 18 | 111 (≈ 343 µM) | 101 (≈ 312 µM) | 161 (≈ 498 µM) | 1.1 | 140 (≈ 436 µM) | 57.7 | – | – | – | –
6 | C=C1CC[C@H](O)[C@]2(C)CCC3=C(C(C)C)CC[C@@]3(C)C[C@@]12O [AMIJIOL] | Active | 56 | 84.6 (≈ 278 µM) | 70.2 (≈ 231 µM) | 76.4 (≈ 251 µM) | 0.5 | 75.5 (≈ 248 µM) | 59.2 | – | – | – | –
7 | C=C1CC[C@H](O)[C@]2(C)C[C@H](OC(C)=O)C3=C(C(C)C)[C@H](OC(C)=O)C[C@@]3(C)C[C@@]12O [AMIJIOL-7,10-DIACETATE] | Active | 71.2 | 16.2 (≈ 38.5 µM) | 47 (≈ 112 µM) | 21.4 (≈ 50.9 µM) | 1.4 | 30.5 (≈ 72.5 µM) | 80.2 | – | – | – | –
8 | O=c1[nH]cc(F)c(=O)[nH]1 [FLUOROURACIL] | – | – | 3.2 (≈ 24.6 µM) | 8.6 (≈ 66.1 µM) | 6.5 (≈ 50 µM) | – | 2.3 (≈ 17.7 µM) | – | 99.5 | – | – | –
9 | CC(C)=CCC[C@@H](C)[C@@H]1CC=C(C)[C@@H]2CC=C(C)[C@H]2[C@@H]1O [ISOPACHYDICTYOL A] | Active | 48.4 | 22.4 (≈ 77.6 µM) | 39.2 (≈ 136 µM) | 28.3 (≈ 98.1 µM) | 1.4 | 39.2 (≈ 136 µM) | 59.9 | – | – | – | –
10 | O=C1O[C@H]([C@@H](O)CO)C(O)=C1O [ASCORBIC ACID] | – | – | – | – | – | 0.85 | – | 88.6 | – | – | – | –
11 | C=C1CC[C@H](OC(C)=O)[C@]2(C)CCC3=C(C(C)C)CC[C@@]3(C)C[C@@]12O [AMIJIOL ACETATE] | Active | 85.9 | 14.2 | 25.1 | 20.5 | 0.7 | 21.2 | 83.3 | – | 12 | 0 | 65
